US9636299B2, “Method for treating diabetic retinopathy” (XAVIER UNIVERSITY OF LOUISIANA, priority 2012, dated 2017)
Residues, ends and D or L forms follow the SMILES beside them.

How the values were obtained:
MMP2 = assay: Laser photocoagulation-induced retinal injury in mice, MMP2 real-time RT-PCR; assay type: in vivo, mouse; conditions: apoEdp 40 mg/kg intraperitoneally once each day for 7 days, vs mice without apoEdp
Experimental: Laser Photocoagulation-Induced Retinopathy. Female mice (C57BL/6J), aged 6-8 weeks, were used for retinal laser photocoagulation studies. The mice were treated and maintained in accordance with the ARVO Statement for the Use of Animals in Ophthalmic and Vision Research. The mice were anesthetized by intraperitoneal injection of a mixture of ketamine (100 mg/kg; Warner Lambert Co., Morris Plains, N.J.) and xylazine (10 mg/kg; Bayer AG, Leverkusen, Germany), and the pupils dilated with 2.5% tropicamide (Alcon, Fort Worth, Tex.). […]
RNA Extraction, Reverse Transcription, & PCR. […] Gene expression was measured at RNA level per 100 ng of total RNA using one-step RT-PCR kit (Bio-Rad, Hercules, Calif.). Four host genes (mouse GAPDH, mouse MMP2, mouse HPSE-1 (heparanase-1), and mouse MMP9) were analyzed to confirm relative quantitative expression levels. The primer pairs used were specifically designed and synthesized by Qiagen GmbH, Hilden, Germany (Quantitech Primer assay kit, for each host gene, catalog numbers QT01658692, QT00088396, QT00009555, and QT00040040, respectively). One-step Real-time quantitative RT-PCR reactions were performed in a 50-μL volume containing a solution of 1× supermix (iQ SYBR Green; Bio-Rad, Hercules, Calif.), 1 μM mix of forward and reverse primers, and 5 μL total RNA. […] Relative quantitative expression levels were determined for each gene. […]

VEGF = assay: Streptozotocin-induced diabetic mice, retinal VEGF protein by Western blot; assay type: in vivo, mouse; conditions: 14 days
Experimental: (§1) Streptozotocin (STZ) induced diabetes. Twelve week old C57Bl/6 mice were used for this study. Mice were induced to have diabetes by intraperitoneal injection of 170 μg/g of streptozotocin (Sigma Aldrich, St. Louis, Mo.). Controls were injected with a vehicle (0.01M sodium citrate buffer). On the third day after STZ treatment, mice tail veins were bled to test the hyperglycemic status using blood sugar detection kit (Lifescan; Johnson & Johnson, Milpitas, Calif.). Mice with blood sugar levels of >300 mg/dL on the third day after STZ treatment were considered diabetic. Eye drop treatment containing 1% apoEdp or vehicle PBS was continued 4 times a day for 14 consecutive days. Intra-peritoneal (i/p) injection containing 40 mg/kg of apoEdp or vehicle control PBS was administered once daily for 14 consecutive days. On the 15th day post-treatment, mice were euthanized, their eyes enucleated, and the retinas dissected out to use for mRNA or Western blot analysis.
Upregulation of VEGF expression is reported as one of the reasons for the loss of tight junction proteins in diabetic mice (20).
(§2) Increased vascular permeability in diabetic retinopathy (DR) is reported to result in a concomitant increase of VEGF. The VEGF pathway is known to play a role in breakdown of the BRB through a mechanism involving the down regulation of tight junction proteins in the retinal microvasculature (20).

HS = assay: Streptozotocin-induced diabetic mice, loss of HS; assay type: in vivo, mouse; conditions: either 14-day eye drop application or systemic i/p injection
Experimental: as §1, §2

[1] = tested on: VEGF-induced ocular angiogenesis; conditions: rabbit eye model, reference 17; cited from earlier work

## CC(=O)N[C@@H](CC(C)C)C(=O)N[C@@H](CCCNC(=N)N)C(=O)N[C@@H](CCCCN)C(=O)N[C@@H](CC(C)C)C(=O)N[C@@H](CCCNC(=N)N)C(=O)N[C@@H](CCCCN)C(=O)N[C@@H](CCCNC(=N)N)C(=O)N[C@@H](CC(C)C)C(=O)N[C@@H](CC(C)C)C(=O)N[C@@H](CC(C)C)C(=O)N[C@@H](CCCNC(=N)N)C(=O)N[C@@H](CCCCN)C(=O)N[C@@H](CC(C)C)C(=O)N[C@@H](CCCNC(=N)N)C(=O)N[C@@H](CCCCN)C(=O)N[C@@H](CCCNC(=N)N)C(=O)N[C@@H](CC(C)C)C(=O)N[C@@H](CC(C)C)C(N)=O [apoEdp, Ac-LRKLRKRLLLRKLRKRLL-amide] (Ac-LRKLRKRLLLRKLRKRLL-NH2)
MMP2
  Expression of MMP2 in retina: dramatically reduced
VEGF; eye drop treatment, vs untreated diabetic
  VEGF expression of retina: not significantly different from untreated diabetic mice
VEGF; i/p injection of apoEdp, vs diabetic untreated
  VEGF expression of retina: significantly reduced VEGF expression
HS
  Loss of HS: reversed
[1]
  VEGF-induced ocular angiogenesis: blocks
